Among the data in patent US12624034B2, “Non-covalent modifiers of AKT1 and uses thereof” (Terremoto Biosciences, Inc., priority 2023, dated 2026) are IC50 values, retold here.

Read-outs that look alike come from different tables or passages of the source.

In one test the target is T1, AKT1 WT (Homo sapiens, UniProt P31749).
T1 construct: expressed in transfected cells; host or cells: HEK293
Description: Live cell AKT1 WT target engagement by NanoBRET competitive probe displacement in HEK293 cells. It is filed as binding. Particulars: 2 h at 37° C., read-out: AKT1 WT IC50.

The target in a further test is T2, AKT2 (Homo sapiens, UniProt P31751).
T2 construct: expressed in transfected cells; host or cells: HEK293
Put plainly: Live cell AKT2 target engagement by NanoBRET competitive probe displacement in HEK293 cells. The conditions noted are these: 2 h at 37° C., read-out: AKT2 IC50. Format: binding.

The mark [1] stands for this setting: NanoBRET competitive probe displacement, live HEK293 cells.
Where [2] appears, read: NanoBRET live cell target engagement, HEK293 cells.

T2 sequence (P31751 whole entry): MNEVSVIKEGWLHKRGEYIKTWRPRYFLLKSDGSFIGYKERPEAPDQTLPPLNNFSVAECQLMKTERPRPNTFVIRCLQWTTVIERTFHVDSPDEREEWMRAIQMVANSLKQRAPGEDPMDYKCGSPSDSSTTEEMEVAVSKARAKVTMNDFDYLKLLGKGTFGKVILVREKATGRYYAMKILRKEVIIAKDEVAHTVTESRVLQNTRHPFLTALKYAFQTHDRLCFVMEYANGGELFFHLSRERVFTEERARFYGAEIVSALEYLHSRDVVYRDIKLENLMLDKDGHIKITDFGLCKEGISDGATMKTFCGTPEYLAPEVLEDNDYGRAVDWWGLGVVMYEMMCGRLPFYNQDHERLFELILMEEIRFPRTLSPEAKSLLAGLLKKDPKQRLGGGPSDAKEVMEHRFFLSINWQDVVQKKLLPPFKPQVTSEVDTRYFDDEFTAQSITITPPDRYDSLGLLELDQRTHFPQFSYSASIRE
T1 sequence (P31749 whole entry): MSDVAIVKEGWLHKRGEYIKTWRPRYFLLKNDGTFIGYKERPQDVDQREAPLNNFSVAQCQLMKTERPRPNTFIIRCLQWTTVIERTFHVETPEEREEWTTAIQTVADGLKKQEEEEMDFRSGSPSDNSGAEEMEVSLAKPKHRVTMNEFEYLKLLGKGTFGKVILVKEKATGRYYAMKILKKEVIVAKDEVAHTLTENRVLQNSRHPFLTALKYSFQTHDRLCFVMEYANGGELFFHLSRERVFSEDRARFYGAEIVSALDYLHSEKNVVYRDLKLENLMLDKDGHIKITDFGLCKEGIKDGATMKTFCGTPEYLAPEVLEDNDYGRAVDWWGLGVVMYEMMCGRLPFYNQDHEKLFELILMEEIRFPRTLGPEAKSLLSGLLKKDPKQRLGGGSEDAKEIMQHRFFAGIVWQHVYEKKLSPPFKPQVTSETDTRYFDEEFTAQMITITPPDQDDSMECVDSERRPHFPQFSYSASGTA

Consider `Nc1ncccc1-c1nc2ccc(-n3nccn3)nc2n1-c1ccc2c(c1)CC[C@@H]2NC(=O)c1cnc(C(F)(F)F)s1` [Compound 526], for which the half-maximal inhibitory concentration (IC50) at AKT1 WT (setting [1]) came to 20.2 nM; at AKT2 (setting [1]), 1260 nM.
On to `Cc1cc(C(=O)N[C@H]2CCc3cc(-n4c(-c5cccnc5N)nc5ccc(-n6cccn6)nc54)ccc32)ccn1` [Compound 75], for which the results for the IC50 at AKT1 WT (setting [2]) and on AKT2 (setting [2]) were 5.99 nM and 73.6 nM, respectively.
Take `Cc1cc(C(=O)N[C@H]2CCc3cc(-n4c(-c5cccnc5N)nc5ccc(-n6cccn6)nc54)ccc32)cc(C(F)(F)F)c1O` [Compound 416]: the IC50 on AKT1 WT (setting [1]) worked out at 1.43 nM; on AKT2 (setting [1]), 34 nM.
Turning to `COc1ccn(-c2ccc3nc(-c4cccnc4N)n(-c4ccc5c(c4)CC[C@@H]5NC4[C@@H]5COC[C@H]4CN(C(=O)C4CC4)C5)c3n2)n1` (single isomer, unassigned) [Compound 523], the IC50 on AKT1 WT (setting [1]) was 48.4 nM; on AKT2 (setting [1]), 1740 nM.
With `Cc1cn2cc(C(=O)N[C@H]3CCc4cc(-n5c(-c6cccnc6N)nc6ccc(-n7cccn7)nc65)ccc43)ccc2n1` [Compound 72], the half-maximal inhibitory concentration (IC50) at AKT1 WT (setting [2]) was 7.95 nM; at AKT2 (setting [2]), 28.1 nM.
Consider `CC(=O)NCC#Cc1ccc2nc(-c3cccnc3N)n(-c3ccc4c(c3)CC[C@@H]4NC(=O)c3ccc(C)nc3)c2n1` [Compound 327], for which the IC50 at AKT1 WT (setting [2]) was 526 nM; at AKT2 (setting [2]), 6850 nM.
With `Nc1ncccc1-c1nc2ccc(-n3cccn3)nc2n1-c1ccc2c(c1)CC[C@@H]2NC(=O)c1cc(F)c(F)c(F)c1` [Compound 343], the IC50 at AKT1 WT (setting [2]) is 16.6 nM; at AKT2 (setting [2]), 240 nM.
As for `Cc1ncccc1C(=O)N[C@H]1CCc2cc(-n3c(-c4cccnc4N)nc4c(C#N)cc(-n5cccn5)nc43)ccc21` [Compound 125], the half-inhibitory concentration (IC50) came out at 13.3 nM on AKT1 WT (setting [2]) and 201 nM on AKT2 (setting [2]).
On to `CC#Cc1ccc2nc(-c3cccnc3N)n(-c3ccc4c(c3)CC[C@@H]4NC(=O)c3ccc(C)nc3)c2n1` [Compound 265], for which the figures for the IC50 on AKT1 WT (setting [2]) and at AKT2 (setting [2]) were 35.9 nM and 1870 nM, respectively.
For the compound `O=C(C1CC1)N1CCC(N[C@@H]2c3ccc(-n4c(-c5ccccc5F)nc5ccc(-n6ccc(N7CCOCC7)n6)nc54)cc3CC2F)CC1` (stereo partly shown) [Compound 572], the IC50 on AKT1 WT (setting [1]) is 16.1 nM; on AKT2 (setting [1]), 945 nM.
Regarding `Nc1ncccc1-c1nc2ccc(-n3cccn3)nc2n1-c1ccc2c(c1)CC[C@@H]2NC(=O)c1cccc(O)c1` [Compound 307], the figures for the IC50 at AKT1 WT (setting [2]) and at AKT2 (setting [2]) were 10.8 nM and 123 nM, respectively.
In the case of `Nc1ncccc1-c1nc2ccc(C#CC3CC3)nc2n1-c1ccc2c(c1)CC(F)[C@@H]2NC1CCN(C(=O)C2CC2)CC1` (stereo partly shown) [Compound 521], the IC50 on AKT1 WT (setting [1]) is 105 nM; at AKT2 (setting [1]), more than 10000 nM.
In the case of `Nc1ncccc1-c1nc2ccc(-n3cccn3)nc2n1-c1ccc2c(c1)CC[C@@H]2NC(=O)c1cnc2c(c1)CC(=O)N2` [Compound 224], the IC50 on AKT1 WT (setting [2]) is 32.1 nM; at AKT2 (setting [2]), 342 nM.
For `Cc1ccc(C(=O)N[C@H]2CCc3cc(-n4c(-c5cccnc5N)nc5ccc(-n6ncnc6C)nc54)ccc32)cn1` [Compound 418, (S)—N-(5-(2-(2-aminopyridin-3-yl)-5-(5-methyl-1H-1,2,4-triazol-1-yl)-3H-imidazo[4,5-b]pyridin-3-yl)-2,3-dihydro-1H-inden-1-yl)-6-methylnicotinamide], the IC50 stood at 76 nM at AKT1 WT (setting [1]) and 2680 nM at AKT2 (setting [1]).
Take `COc1cccc(C(=O)N[C@H]2CCc3cc(-n4c(-c5cccnc5N)nc5ccc(-n6cccn6)nc54)ccc32)c1` [Compound 335]: the IC50 came out at 5.88 nM at AKT1 WT (setting [2]) and 31.5 nM at AKT2 (setting [2]).
For `Cn1nc(F)cc1C(=O)N[C@H]1CCc2cc(-n3c(-c4cccnc4N)nc4ccc(-n5cccn5)nc43)ccc21` [Compound 396], the results for the IC50 on AKT1 WT (setting [1]) and on AKT2 (setting [1]) were 14.7 nM and 250 nM, respectively.
For `Nc1ncccc1-c1nc2ccc(-n3ccc(OC(F)F)n3)nc2n1-c1ccc2c(c1)CC(F)[C@@H]2NC1CCN(C(=O)C2CC2)CC1` (stereo partly shown) [Compound 525], the IC50 is 33.5 nM on AKT1 WT (setting [1]) and 1330 nM on AKT2 (setting [1]).
`Cc1nc(C(F)F)sc1C(=O)N[C@H]1CCc2cc(-n3c(-c4cccnc4N)nc4ccc(-n5nccn5)nc43)ccc21` [Compound 541]: the results for the IC50 on AKT1 WT (setting [1]) and on AKT2 (setting [1]) were 5.46 nM and 556 nM, respectively.
With `Nc1ncccc1-c1nc2ccc(-n3cccn3)nc2n1-c1ccc2c(c1)CC[C@@H]2NC1CC2(C1)CN(c1ccccn1)C2` [Compound 448], the IC50 is 47.8 nM on AKT1 WT (setting [1]) and 1760 nM on AKT2 (setting [1]).
In the case of `Nc1ncccc1-c1nc2ccc(-n3cccn3)nc2n1-c1ccc2c(c1)CC[C@@H]2NCc1ccncc1` [Compound 142], the IC50 is 43.8 nM on AKT1 WT (setting [2]) and 886 nM at AKT2 (setting [2]).
In the case of `Cc1ncccc1CN[C@H]1CCc2cc(-n3c(-c4cccnc4N)nc4ccc(-n5cccn5)nc43)ccc21` [Compound 140], the figures for the IC50 at AKT1 WT (setting [2]) and at AKT2 (setting [2]) were 31.5 nM and 576 nM, respectively.
Turning to `Nc1ncccc1-c1nc2ccc(-n3cccn3)nc2n1-c1ccc2c(c1)CC[C@@H]2NC(=O)c1ccn2ccnc2c1` [Compound 255], the IC50 at AKT1 WT (setting [2]) was 3.42 nM; on AKT2 (setting [2]), 30.4 nM.
Turning to `Cn1nc(C(=O)N[C@H]2CCc3cc(-n4c(-c5cccnc5N)nc5ccc(-n6cccn6)nc54)ccc32)cc1F` [Compound 428], the values for the IC50 at AKT1 WT (setting [1]) and at AKT2 (setting [1]) were 58.9 nM and 1730 nM, respectively.
`CNC(=O)c1ccc(C(=O)N[C@H]2CCc3cc(-n4c(-c5cccnc5N)nc5ccc(-n6cccn6)nc54)ccc32)cc1` [Compound 256]: the IC50 at AKT1 WT (setting [2]) is 5.19 nM; on AKT2 (setting [2]), 73.8 nM.
Taken in the same sequence, the figures for `Cn1nc(C(=O)N[C@H]2CCc3cc(-n4c(-c5cccnc5N)nc5ccc(-n6cccn6)nc54)ccc32)c2cccnc21` [Compound 163] were 20.4 nM and 363 nM.
For `Nc1ncccc1-c1nc2ccc(-n3cccn3)nc2n1-c1ccc2c(c1)CC[C@@H]2NC1CCc2cnccc2C1` (stereo partly shown) [Compound 464], the IC50 turned out to be 19.2 nM at AKT1 WT (setting [1]) and 167 nM on AKT2 (setting [1]).
As for `Cc1ccc(C(=O)N[C@H]2CCc3cc(-n4c(-c5cccnc5N)nc5ccc(-n6ccc(OC(F)F)n6)nc54)ccc32)cn1` [Compound 535], the IC50 on AKT1 WT (setting [1]) was 6.42 nM; at AKT2 (setting [1]), 42.1 nM.
With `Cc1ncccc1C(=O)N[C@H]1CCc2cc(-n3c(-c4cccnc4N)nc4ccc(-c5ncco5)nc43)ccc21` [Compound 229], the IC50 amounted to 95.9 nM at AKT1 WT (setting [2]) and 2850 nM on AKT2 (setting [2]).
On to `Nc1ncccc1-c1nc2ccc(-n3ccc(Oc4ccncc4)n3)nc2n1-c1ccc2c(c1)CC[C@@H]2NC1CCN(C(=O)C2CC2)CC1` [Compound 575], for which the IC50 on AKT1 WT (setting [1]) worked out at 221 nM; on AKT2 (setting [1]) it was 3300 nM.
For `Nc1ncccc1-c1nc2ccc(-c3cnccn3)nc2n1-c1ccc2c(c1)CC[C@@H]2NC1CCN(C(=O)C2CC2)CC1` [Compound 556], the IC50 was 124 nM at AKT1 WT (setting [1]) and 1330 nM at AKT2 (setting [1]).
For `Cc1ncc(C(=O)N[C@H]2CCc3cc(-n4c(-c5cccnc5N)nc5ccc(-n6cccn6)nc54)ccc32)c(C)n1` [Compound 96], the IC50 turned out to be 18.6 nM at AKT1 WT (setting [2]) and 94.7 nM on AKT2 (setting [2]).
`Nc1ncccc1-c1nc2ccc(-n3cccn3)nc2n1-c1ccc2c(c1)CC[C@@H]2N(C1CC1)C1CCN(C(=O)C2CC2)CC1` [Compound 557]: the values for the 50% inhibitory concentration (IC50) on AKT1 WT (setting [1]) and on AKT2 (setting [1]) were 15.9 nM and 1760 nM, respectively.
As to `Nc1ncccc1-c1nc2ccc(-n3cccn3)nc2n1-c1ccc2c(c1)CC[C@@H]2NC(=O)c1cccnc1C1CC1` [Compound 103], the IC50 on AKT1 WT (setting [2]) was 25.2 nM; at AKT2 (setting [2]), 316 nM.
Taken in the same sequence, the figures for `Nc1ncccc1-c1nc2ccc(-n3cccn3)nc2n1-c1ccc2c(c1)CC[C@@H]2n1cc(-c2ccccn2)nn1` [Compound 200] were 14.7 nM and 212 nM.
Turning to `COc1cc(C(=O)N[C@H]2CCc3cc(-n4c(-c5cccnc5N)nc5ccc(-n6cccn6)nc54)ccc32)ccc1F` [Compound 336], the half-maximal inhibitory concentration (IC50) at AKT1 WT (setting [2]) is 17.7 nM; on AKT2 (setting [2]) it was 305 nM.
`Nc1ncccc1-c1nc2ccc(-n3cccn3)nc2n1-c1ccc2c(c1)CC[C@@H]2NC(=O)c1cccn2ccnc12` [Compound 161]: the IC50 at AKT1 WT (setting [2]) came out at 94.6 nM; at AKT2 (setting [2]) it was 1910 nM.
For `Nc1ncccc1-c1nc2ccc(-n3cccn3)nc2n1-c1ccc2c(c1)CC[C@@H]2NC(=O)c1ccc2[nH][nH]c(=O)c2c1` [Compound 189], in that order: 554 nM and 2850 nM.
`Nc1ncccc1-c1nc2ccc(-n3ccc(C4CC4)n3)nc2n1-c1ccc2c(c1)CC[C@@H]2NC1CCN(C(=O)C2CC2)CC1` [Compound 442]: the IC50 at AKT1 WT (setting [1]) is 72.6 nM; at AKT2 (setting [1]), 1600 nM.
For `Nc1ncccc1-c1nc2ccc(-n3cccn3)nc2n1-c1ccc2c(c1)CC[C@@H]2NC(=O)Nc1ccccc1` [Compound 133], the IC50 came to 76.2 nM at AKT1 WT (setting [2]) and 1340 nM on AKT2 (setting [2]).
Regarding `Nc1ncccc1-c1nc2ccc(-n3cccn3)nc2n1-c1ccc2c(c1)CC[C@@H]2NC(=O)c1ccn2nccc2n1` [Compound 306], the IC50 at AKT1 WT (setting [2]) is 34.5 nM; on AKT2 (setting [2]), 132 nM.
Take `Nc1ncccc1-c1nc2ccc(-n3ccc(OC(F)F)n3)nc2n1-c1ccc2c(c1)CC[C@@H]2NC1[C@@H]2COC[C@H]1CN(C(=O)C1CC1)C2` (stereo partly shown) [Compound 560]: the values for the IC50 on AKT1 WT (setting [1]) and on AKT2 (setting [1]) were 249 nM and 2520 nM, respectively.
On to `Cn1ccc(=O)n1-c1ccn(-c2ccc3nc(-c4cccnc4N)n(-c4ccc5c(c4)CC[C@@H]5NC4CCN(C(=O)C5CC5)CC4)c3n2)n1` [Compound 573], for which the IC50 on AKT1 WT (setting [1]) is 318 nM; on AKT2 (setting [1]), 5640 nM.
For `CSc1ccn(-c2ccc3nc(-c4cccnc4N)n(-c4ccc5c(c4)CC[C@@H]5NC4CCN(C(=O)C5CC5)CC4)c3n2)n1` [Compound 518], in that order: 32 nM and 1290 nM.
Take `Nc1ncccc1-c1nc2ccc(-n3ccc(OC4CC4)n3)nc2n1-c1ccc2c(c1)CC[C@@H]2NC1CCN(C(=O)C2CC2)CC1` [Compound 497]: the 50% inhibitory concentration (IC50) on AKT1 WT (setting [1]) stood at 18.9 nM; at AKT2 (setting [1]), 1280 nM.
